Measured values taken from ChEMBL document CHEMBL5715954, “Silencing c-Myc translation as a therapeutic strategy through targeting PI3Kδ and CK1ε in hematological malignancies” (Blood, 2017).

Experiments:
Parameters in all cases: scale not given: the % may be the effect or the level left
[1] = molecular target: Calcium/calmodulin-dependent protein kinase type 1D (Homo sapiens) (UniProt Q8IU85); assay: Inhibition of human CAMK1d assessed as enzyme activity at 1 uM using KKALRRQETVDAL as substrate preincubated for 20 mins followed by [gamma-33P]-ATP addition and measured after 120 mins by radiometric Hot-SpotSM Kinase assay relative to control
Chain of Calcium/calmodulin-dependent protein kinase type 1D (Homo sapiens) (Q8IU85 whole entry, looked up, canonical isoform): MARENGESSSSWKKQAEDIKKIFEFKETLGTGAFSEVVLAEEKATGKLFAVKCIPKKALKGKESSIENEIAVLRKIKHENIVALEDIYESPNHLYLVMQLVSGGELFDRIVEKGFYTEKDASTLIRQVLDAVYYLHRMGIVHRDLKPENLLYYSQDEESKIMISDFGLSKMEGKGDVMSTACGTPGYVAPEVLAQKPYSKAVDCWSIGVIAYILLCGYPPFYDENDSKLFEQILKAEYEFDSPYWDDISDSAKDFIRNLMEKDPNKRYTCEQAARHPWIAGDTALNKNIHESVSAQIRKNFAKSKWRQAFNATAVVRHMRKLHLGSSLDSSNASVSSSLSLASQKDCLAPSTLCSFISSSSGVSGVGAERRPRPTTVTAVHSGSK

[2] = molecular target: Casein kinase I isoform gamma-1 (Homo sapiens) (UniProt Q9HCP0); assay: Inhibition of human CK1g1 assessed as enzyme activity at 1 uM using KRRRAL[pS]VASLPGL as substrate preincubated for 20 mins followed by [gamma-33P]-ATP addition and measured after 120 mins by radiometric Hot-SpotSM Kinase assay relative to control
Chain of Casein kinase I isoform gamma-1 (Homo sapiens) (Q9HCP0 whole entry, looked up, canonical isoform): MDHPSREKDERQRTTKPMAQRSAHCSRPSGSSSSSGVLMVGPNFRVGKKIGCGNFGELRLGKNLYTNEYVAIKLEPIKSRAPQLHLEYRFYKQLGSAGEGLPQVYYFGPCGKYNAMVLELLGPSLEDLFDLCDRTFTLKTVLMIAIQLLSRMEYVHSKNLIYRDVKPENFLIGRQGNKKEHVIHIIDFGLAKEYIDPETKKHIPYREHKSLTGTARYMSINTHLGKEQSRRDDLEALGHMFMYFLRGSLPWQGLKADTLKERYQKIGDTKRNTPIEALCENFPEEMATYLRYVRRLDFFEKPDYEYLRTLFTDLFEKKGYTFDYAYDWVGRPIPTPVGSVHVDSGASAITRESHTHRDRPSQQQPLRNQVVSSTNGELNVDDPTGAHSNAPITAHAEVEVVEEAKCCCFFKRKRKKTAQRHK

[3] = molecular target: T1, Rhodopsin kinase GRK1 (Homo sapiens) (UniProt Q15835); assay: Inhibition of human GRK1 assessed as enzyme activity at 1 uM using casein as substrate preincubated for 20 mins followed by [gamma-33P]-ATP addition and measured after 120 mins by radiometric Hot-SpotSM Kinase assay relative to control
T1 sequence (whole entry): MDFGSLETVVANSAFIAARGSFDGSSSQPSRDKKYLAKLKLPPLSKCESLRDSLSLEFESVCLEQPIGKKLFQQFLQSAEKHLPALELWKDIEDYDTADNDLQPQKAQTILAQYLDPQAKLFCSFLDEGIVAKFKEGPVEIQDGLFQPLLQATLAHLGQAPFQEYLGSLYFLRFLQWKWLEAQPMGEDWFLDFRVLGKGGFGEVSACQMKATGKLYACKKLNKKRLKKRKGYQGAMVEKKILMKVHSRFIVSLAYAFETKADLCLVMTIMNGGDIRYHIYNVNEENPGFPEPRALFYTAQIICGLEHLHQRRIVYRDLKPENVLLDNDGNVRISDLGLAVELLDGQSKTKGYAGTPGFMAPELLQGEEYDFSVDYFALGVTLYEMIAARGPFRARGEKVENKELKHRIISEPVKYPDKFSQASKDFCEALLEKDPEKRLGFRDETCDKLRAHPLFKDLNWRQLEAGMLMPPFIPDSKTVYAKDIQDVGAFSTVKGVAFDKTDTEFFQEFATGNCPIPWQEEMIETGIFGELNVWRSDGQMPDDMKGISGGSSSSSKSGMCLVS

[4] = molecular target: Homeodomain-interacting protein kinase 2 (Homo sapiens) (UniProt Q9H2X6); assay: Inhibition of human HIPK2 assessed as enzyme activity at 1 uM using myelin basic protein as substrate preincubated for 20 mins followed by [gamma-33P]-ATP addition and measured after 120 mins by radiometric Hot-SpotSM Kinase assay relative to control
Chain of Homeodomain-interacting protein kinase 2 (Homo sapiens) (Q9H2X6 whole entry, looked up): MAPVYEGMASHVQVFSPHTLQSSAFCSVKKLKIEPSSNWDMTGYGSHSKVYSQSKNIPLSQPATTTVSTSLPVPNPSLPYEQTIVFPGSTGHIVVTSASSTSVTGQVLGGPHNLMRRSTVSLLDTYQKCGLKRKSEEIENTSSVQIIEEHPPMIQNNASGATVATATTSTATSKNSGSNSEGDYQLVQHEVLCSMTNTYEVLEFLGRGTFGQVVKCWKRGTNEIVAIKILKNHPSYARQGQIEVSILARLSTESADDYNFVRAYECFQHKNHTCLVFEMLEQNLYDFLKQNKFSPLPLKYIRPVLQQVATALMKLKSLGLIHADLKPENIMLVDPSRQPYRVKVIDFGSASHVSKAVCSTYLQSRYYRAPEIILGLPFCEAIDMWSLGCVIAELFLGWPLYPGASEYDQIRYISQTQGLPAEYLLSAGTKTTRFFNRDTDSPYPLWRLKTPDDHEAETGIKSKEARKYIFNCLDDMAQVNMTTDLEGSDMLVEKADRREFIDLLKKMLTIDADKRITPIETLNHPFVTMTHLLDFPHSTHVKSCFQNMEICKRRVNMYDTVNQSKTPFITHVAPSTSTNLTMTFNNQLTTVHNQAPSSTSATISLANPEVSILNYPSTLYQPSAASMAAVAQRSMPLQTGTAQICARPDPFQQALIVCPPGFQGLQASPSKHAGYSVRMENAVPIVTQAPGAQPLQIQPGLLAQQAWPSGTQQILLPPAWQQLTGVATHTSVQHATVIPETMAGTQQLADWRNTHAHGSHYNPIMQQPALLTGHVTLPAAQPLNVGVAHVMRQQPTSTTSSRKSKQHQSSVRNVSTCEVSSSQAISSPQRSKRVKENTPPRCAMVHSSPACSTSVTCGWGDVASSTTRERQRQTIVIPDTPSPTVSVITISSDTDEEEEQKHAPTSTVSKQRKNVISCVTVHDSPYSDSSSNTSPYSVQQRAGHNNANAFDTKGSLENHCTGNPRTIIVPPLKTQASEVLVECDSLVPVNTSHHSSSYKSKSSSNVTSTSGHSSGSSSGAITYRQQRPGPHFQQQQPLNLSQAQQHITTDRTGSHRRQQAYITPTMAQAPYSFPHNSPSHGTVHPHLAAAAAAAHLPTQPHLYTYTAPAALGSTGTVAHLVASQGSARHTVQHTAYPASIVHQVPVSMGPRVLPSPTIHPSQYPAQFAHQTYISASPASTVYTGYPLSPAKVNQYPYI

[5] = molecular target: Mitogen-activated protein kinase 9 (Homo sapiens) (UniProt P45984); assay: Inhibition of human JNK2-alpha2 assessed as enzyme activity at 1 uM using ATF2 as substrate preincubated for 20 mins followed by [gamma-33P]-ATP addition and measured after 120 mins by radiometric Hot-SpotSM Kinase assay relative to control
[6] = molecular target: Dual specificity mitogen-activated protein kinase kinase 1 (Homo sapiens) (UniProt Q02750); assay: Inhibition of human MEK1 assessed as enzyme activity at 1 uM using ERK2 (K52R) as substrate preincubated for 20 mins followed by [gamma-33P]-ATP addition and measured after 120 mins by radiometric Hot-SpotSM Kinase assay relative to control
Chain of Dual specificity mitogen-activated protein kinase kinase 1 (Homo sapiens) (Q02750 whole entry): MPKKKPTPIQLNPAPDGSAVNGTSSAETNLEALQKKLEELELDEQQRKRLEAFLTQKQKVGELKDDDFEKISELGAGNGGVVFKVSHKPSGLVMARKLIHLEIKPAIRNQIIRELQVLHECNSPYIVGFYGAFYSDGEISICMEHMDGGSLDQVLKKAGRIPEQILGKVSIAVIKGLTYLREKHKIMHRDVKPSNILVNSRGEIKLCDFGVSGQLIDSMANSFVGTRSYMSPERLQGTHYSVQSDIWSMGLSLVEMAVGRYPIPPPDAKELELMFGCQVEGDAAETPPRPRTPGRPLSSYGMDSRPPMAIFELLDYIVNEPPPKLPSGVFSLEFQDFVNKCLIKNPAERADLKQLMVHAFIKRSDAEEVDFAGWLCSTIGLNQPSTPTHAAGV

[7] = molecular target: Mitogen-activated protein kinase kinase kinase 10 (Homo sapiens) (UniProt Q02779); assay: Inhibition of human MLK2 assessed as enzyme activity at 1 uM using myelin basic protein as substrate preincubated for 20 mins followed by [gamma-33P]-ATP addition and measured after 120 mins by radiometric Hot-SpotSM Kinase assay relative to control
Chain of Mitogen-activated protein kinase kinase kinase 10 (Homo sapiens) (Q02779 whole entry, looked up): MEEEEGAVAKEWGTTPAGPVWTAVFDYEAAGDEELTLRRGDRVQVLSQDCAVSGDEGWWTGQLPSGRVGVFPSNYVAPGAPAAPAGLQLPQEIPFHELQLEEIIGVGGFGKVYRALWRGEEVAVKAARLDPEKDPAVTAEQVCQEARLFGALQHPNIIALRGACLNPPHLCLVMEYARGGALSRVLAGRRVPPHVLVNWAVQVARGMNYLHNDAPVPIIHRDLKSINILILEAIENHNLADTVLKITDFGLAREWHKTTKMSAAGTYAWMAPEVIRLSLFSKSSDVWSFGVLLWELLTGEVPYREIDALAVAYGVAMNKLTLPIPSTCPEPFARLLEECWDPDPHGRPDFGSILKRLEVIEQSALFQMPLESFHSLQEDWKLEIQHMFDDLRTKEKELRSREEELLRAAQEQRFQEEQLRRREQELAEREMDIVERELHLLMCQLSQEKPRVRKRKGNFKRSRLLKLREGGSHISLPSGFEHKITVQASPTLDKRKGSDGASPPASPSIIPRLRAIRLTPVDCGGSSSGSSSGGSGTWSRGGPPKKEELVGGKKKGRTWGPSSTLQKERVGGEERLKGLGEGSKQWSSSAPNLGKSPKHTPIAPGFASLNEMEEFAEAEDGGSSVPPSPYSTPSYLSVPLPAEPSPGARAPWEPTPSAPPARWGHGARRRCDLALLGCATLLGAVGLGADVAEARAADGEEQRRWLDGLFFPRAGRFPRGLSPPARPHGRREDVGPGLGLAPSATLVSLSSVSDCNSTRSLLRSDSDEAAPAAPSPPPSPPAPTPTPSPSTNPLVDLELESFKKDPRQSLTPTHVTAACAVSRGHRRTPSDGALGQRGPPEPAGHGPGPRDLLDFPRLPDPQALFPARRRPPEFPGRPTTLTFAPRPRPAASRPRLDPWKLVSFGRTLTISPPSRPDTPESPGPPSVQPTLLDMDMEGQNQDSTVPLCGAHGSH

[8] = molecular target: Mitogen-activated protein kinase 14 (Homo sapiens) (UniProt Q16539); assay: Inhibition of human P38a assessed as enzyme activity at 1 uM using myelin basic protein as substrate preincubated for 20 mins followed by [gamma-33P]-ATP addition and measured after 120 mins by radiometric Hot-SpotSM Kinase assay relative to control
Chain of Mitogen-activated protein kinase 14 (Homo sapiens) (Q16539 whole entry): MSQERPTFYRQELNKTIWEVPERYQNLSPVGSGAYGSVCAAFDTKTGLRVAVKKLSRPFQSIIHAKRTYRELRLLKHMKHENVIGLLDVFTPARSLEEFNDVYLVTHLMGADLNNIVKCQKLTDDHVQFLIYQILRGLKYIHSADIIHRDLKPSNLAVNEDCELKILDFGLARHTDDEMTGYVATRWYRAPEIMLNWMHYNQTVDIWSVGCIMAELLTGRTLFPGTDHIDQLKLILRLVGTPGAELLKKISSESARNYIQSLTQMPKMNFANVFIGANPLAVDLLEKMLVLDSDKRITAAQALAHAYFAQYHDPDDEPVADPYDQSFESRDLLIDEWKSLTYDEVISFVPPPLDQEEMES

[9] = molecular target: T2, cGMP-dependent protein kinase 1 (Homo sapiens) (UniProt Q13976); assay: Inhibition of human PKG1b assessed as enzyme activity at 1 uM using LRRASLG as substrate preincubated for 20 mins followed by [gamma-33P]-ATP addition and measured after 120 mins by radiometric Hot-SpotSM Kinase assay relative to control
T2 sequence (whole entry): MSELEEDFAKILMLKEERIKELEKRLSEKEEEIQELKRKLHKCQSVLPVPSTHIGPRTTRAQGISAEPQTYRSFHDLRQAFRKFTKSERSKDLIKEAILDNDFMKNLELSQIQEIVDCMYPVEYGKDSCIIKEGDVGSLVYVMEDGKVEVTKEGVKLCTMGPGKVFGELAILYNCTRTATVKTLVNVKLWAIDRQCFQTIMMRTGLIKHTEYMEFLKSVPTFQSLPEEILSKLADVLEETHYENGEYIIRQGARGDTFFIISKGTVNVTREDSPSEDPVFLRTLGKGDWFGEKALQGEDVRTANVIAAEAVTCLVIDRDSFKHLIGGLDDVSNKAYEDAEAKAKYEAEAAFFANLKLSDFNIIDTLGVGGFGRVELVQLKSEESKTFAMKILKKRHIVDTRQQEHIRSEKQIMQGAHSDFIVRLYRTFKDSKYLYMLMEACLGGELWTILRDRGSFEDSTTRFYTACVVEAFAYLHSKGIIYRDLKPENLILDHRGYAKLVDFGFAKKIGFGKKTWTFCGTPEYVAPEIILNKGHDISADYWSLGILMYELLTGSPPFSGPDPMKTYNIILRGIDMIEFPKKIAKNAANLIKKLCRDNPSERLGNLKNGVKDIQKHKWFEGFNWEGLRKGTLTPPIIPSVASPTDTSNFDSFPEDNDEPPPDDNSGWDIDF

[10] = molecular target: Dual specificity testis-specific protein kinase 1 (Homo sapiens) (UniProt Q15569); assay: Inhibition of human TESK1 assessed as enzyme activity at 1 uM using cofilin 2 as substrate preincubated for 20 mins followed by [gamma-33P]-ATP addition and measured after 120 mins by radiometric Hot-SpotSM Kinase assay relative to control
Chain of Dual specificity testis-specific protein kinase 1 (Homo sapiens) (Q15569 whole entry, looked up): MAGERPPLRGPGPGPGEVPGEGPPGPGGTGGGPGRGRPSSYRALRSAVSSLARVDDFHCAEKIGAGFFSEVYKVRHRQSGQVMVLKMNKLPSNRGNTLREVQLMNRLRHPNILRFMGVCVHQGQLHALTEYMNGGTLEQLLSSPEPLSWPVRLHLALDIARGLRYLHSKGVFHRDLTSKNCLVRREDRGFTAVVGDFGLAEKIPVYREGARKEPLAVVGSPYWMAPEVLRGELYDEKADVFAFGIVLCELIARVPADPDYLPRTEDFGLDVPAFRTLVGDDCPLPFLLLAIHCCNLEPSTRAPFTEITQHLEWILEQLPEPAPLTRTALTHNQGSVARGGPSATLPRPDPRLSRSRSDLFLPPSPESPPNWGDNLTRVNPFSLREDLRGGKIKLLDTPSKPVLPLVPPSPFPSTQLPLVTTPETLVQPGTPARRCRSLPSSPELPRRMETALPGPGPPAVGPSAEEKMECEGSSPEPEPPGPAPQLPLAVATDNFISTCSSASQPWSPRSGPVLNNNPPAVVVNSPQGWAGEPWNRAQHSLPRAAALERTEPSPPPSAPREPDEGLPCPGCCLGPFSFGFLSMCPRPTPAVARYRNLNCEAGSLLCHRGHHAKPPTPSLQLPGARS

[11] = molecular target: TGF-beta receptor type-2 (Homo sapiens) (UniProt P37173); assay: Inhibition of human TGFBR2 assessed as enzyme activity at 1 uM using myelin basic protein as substrate preincubated for 20 mins followed by [gamma-33P]-ATP addition and measured after 120 mins by radiometric Hot-SpotSM Kinase assay relative to control
Chain of TGF-beta receptor type-2 (Homo sapiens) (P37173 whole entry): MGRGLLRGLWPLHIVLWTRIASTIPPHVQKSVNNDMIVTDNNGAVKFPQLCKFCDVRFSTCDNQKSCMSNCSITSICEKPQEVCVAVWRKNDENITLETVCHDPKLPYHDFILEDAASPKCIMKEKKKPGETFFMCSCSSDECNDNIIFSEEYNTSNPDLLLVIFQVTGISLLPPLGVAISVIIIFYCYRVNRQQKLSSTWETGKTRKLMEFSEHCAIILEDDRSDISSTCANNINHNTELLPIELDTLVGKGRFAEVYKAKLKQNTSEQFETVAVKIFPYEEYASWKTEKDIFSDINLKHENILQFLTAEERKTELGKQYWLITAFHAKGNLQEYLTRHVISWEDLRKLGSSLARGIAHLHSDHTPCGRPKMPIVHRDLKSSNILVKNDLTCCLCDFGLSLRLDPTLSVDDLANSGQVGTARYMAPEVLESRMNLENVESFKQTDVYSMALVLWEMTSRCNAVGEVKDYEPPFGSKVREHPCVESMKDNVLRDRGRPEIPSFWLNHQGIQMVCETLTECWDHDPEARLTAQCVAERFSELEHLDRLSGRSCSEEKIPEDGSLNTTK

Row | Compound | Activity [1] [%] | Activity [2] [%] | Activity [3] [%] | Activity [4] [%] | Activity [5] [%] | Activity [6] [%] | Activity [7] [%] | Activity [8] [%] | Activity [9] [%] | Activity [10] [%] | Activity [11] [%]
1 | C[C@H](Nc1ncnc2nc[nH]c12)c1cc2cccc(Cl)c2c(=O)n1-c1ccccc1 | 96 | 98.3 | 102 | 100 | 97.8 | 97.2 | 103 | 94.5 | 95.9 | 102 | 114
2 | CC[C@H](Nc1ncnc2[nH]cnc12)c1nc2cccc(F)c2c(=O)n1-c1ccccc1 | 98.8 | 105 | 104 | 100 | 96.8 | 100 | 112 | 98.8 | 99.8 | 98.7 | 110
3 | CC(C)Oc1ccc(-c2nn([C@@H](C)c3oc4ccc(F)cc4c(=O)c3-c3cccc(F)c3)c3ncnc(N)c23)cc1F [UMBRALISIB] | 99.1 | 97.6 | 98.7 | 107 | 97.3 | 94.4 | 108 | 96.9 | 90.3 | 98 | 97.4
